From patent publication US20250064789A1, “KETOAMIDE DERIVATIVES AND PHARMACEUTICAL USES THEREOF” (priority 2022, published 2025)
Read-outs that look alike come from different tables or passages of the source.

Target: recombinant SARS-CoV-2 M^pro (Severe acute respiratory syndrome coronavirus 2 (2019-nCoV) (SARS-CoV-2), UniProt P0DTD1)
Assay: Inhibition of SARS-CoV-2 M^pro enzyme activity (fluorescent substrate assay)
Type: biochemical
Conditions: inhibition of SARS-CoV-2 M^pro enzyme activity, read-out: IC50

SMILES | IC50 (values in nM) | IC50 (values given in μM)
C[C@@H](NC(=O)C1CC12CCC(F)(F)CC2)C(=O)N[C@H](Cc1ccccc1)C(=O)C(=O)NCc1nccs1 (stereo partly drawn) [Compound 372] | 10.6 ± 0.4 nM | –
C[C@@H](NC(=O)CC1CCC(F)(F)CC1)C(=O)N[C@H](Cc1ccccc1)C(=O)C(=O)NCc1nccs1 [Compound 373] | 16 ± 0.8 nM | –
C[C@@H](NC(=O)C1(F)CCCCC1)C(=O)N[C@H](Cc1ccccc1)C(=O)C(=O)NCc1nccs1 [Compound 374] | 20.8 ± 1.6 nM | –
C[C@@H](NC(=O)CC1CC1(F)F)C(=O)N[C@H](Cc1ccccc1)C(=O)C(=O)NCc1nccs1 (stereo partly drawn) [Compound 376] | 35.2 ± 3.6 nM | –
C[C@@H](NC(=O)[C@@H]1C[C@@H]2[C@H](C1)C2(F)F)C(=O)N[C@H](Cc1ccccc1)C(=O)C(=O)NCc1nccs1 [Compound 377] | 80 ± 3.6 nM | –
C[C@@H](NC(=O)c1cc2ccccc2[nH]1)C(=O)N[C@H](Cc1ccccc1)C(=O)C(=O)NCc1nccs1 [Compound 380] | 55.8 ± 7.2 nM | –
C[C@@H](NC(=O)c1ccn(-c2ccccc2)n1)C(=O)N[C@H](Cc1ccccc1)C(=O)C(=O)NCc1nccs1 [Compound 381] | 416.8 ± 4 nM | –
C[C@@H](NC(=O)Cc1cc(OC(F)(F)F)ccc1F)C(=O)N[C@H](Cc1ccccc1)C(=O)C(=O)NCc1nccs1 [Compound 382] | – | 15000 ± 1300 nM
C[C@@H](NC(=O)c1cc(Cl)cc(OC(F)(F)F)c1)C(=O)N[C@H](Cc1ccccc1)C(=O)C(=O)NCc1nccs1 [Compound 383] | 21.5 ± 0.8 nM | –
COc1ccc(OC(F)(F)F)cc1C(=O)N[C@H](C)C(=O)N[C@H](Cc1ccccc1)C(=O)C(=O)NCc1nccs1 [Compound 384] | 15.5 ± 0.3 nM | –
C[C@@H](NC(=O)c1cc(OC(F)(F)F)ccc1F)C(=O)N[C@H](Cc1ccccc1)C(=O)C(=O)NCc1nccs1 [Compound 385] | 55.8 ± 7.2 nM | –
O=C(CC1CC1(F)F)NCC(=O)N[C@H](Cc1ccccc1)C(=O)C(=O)NCc1nccs1 (stereo partly drawn) [Compound 386] | 166 ± 2.1 nM | –
O=C(CNC(=O)C1CCC(F)(F)CC1)N[C@H](Cc1ccccc1)C(=O)C(=O)NCc1nccs1 [Compound 388] | 62.9 ± 8.1 nM | –
O=C(CNC(=O)[C@@H]1C[C@@H]2[C@H](C1)C2(F)F)N[C@H](Cc1ccccc1)C(=O)C(=O)NCc1nccs1 [Compound 389] | 110 ± 1.6 nM | –
O=C(CC1CCC(F)(F)CC1)NCC(=O)N[C@H](Cc1ccccc1)C(=O)C(=O)NCc1nccs1 [Compound 390] | 21.8 ± 1.1 nM | –
O=C(CNC(=O)C1CCC(F)(F)C1)N[C@H](Cc1ccccc1)C(=O)C(=O)NCc1nccs1 (stereo partly drawn) [Compound 391] | 109 ± 8.6 nM | –
COC[C@@H](NC(=O)C1CCC(F)(F)CC1)C(=O)N[C@H](Cc1ccccc1)C(=O)C(=O)NCc1nccs1 [Compound 393] | 88.2 ± 5.6 nM | –
COC[C@@H](NC(=O)CC1CCC(F)(F)CC1)C(=O)N[C@H](Cc1ccccc1)C(=O)C(=O)NCc1nccs1 [Compound 394] | 12.4 ± 1.4 nM | –
COC[C@@H](NC(=O)CC1CC1(F)F)C(=O)N[C@H](Cc1ccccc1)C(=O)C(=O)NCc1nccs1 (stereo partly drawn) [Compound 396] | 48.8 ± 0.4 nM | –
COC[C@@H](NC(=O)[C@H]1CC[C@@H](F)CC1)C(=O)N[C@H](Cc1ccccc1)C(=O)C(=O)NCc1nccs1 [Compound 399] | 32.8 ± 1.5 nM | –
O=C(NCc1nccs1)C(=O)[C@@H](Cc1ccccc1)NC(=O)[C@H]1CC(F)(F)CN1C(=O)CC1CCC(F)(F)CC1 [Compound 401] | 19 ± 0.1 nM | –
O=C(NCc1nccs1)C(=O)[C@@H](Cc1ccccc1)NC(=O)[C@H]1CC(F)(F)CN1C(=O)C1CCCC(F)(F)C1 (stereo partly drawn) [Compound 403] | 20.4 ± 2.4 nM | –

SMILES | IC50 (values in nM) | IC50 (values given in μM)
O=C(NCc1nccs1)C(=O)[C@@H](Cc1ccccc1)NC(=O)[C@H]1CC(F)(F)CN1C(=O)C1CCC(F)(F)C1 (stereo partly drawn) [Compound 404] | 47.7 ± 1 nM | –
O=C(NCc1nccs1)C(=O)[C@@H](Cc1ccccc1)NC(=O)[C@H]1CC(F)(F)CN1C(=O)CC1CC1(F)F (stereo partly drawn) [Compound 405] | 104 ± 1.7 nM | –
O=C(NCc1nccs1)C(=O)[C@@H](Cc1ccccc1)NC(=O)[C@H]1CC(F)(F)CN1C(=O)[C@@H]1C[C@@H]2[C@H](C1)C2(F)F [Compound 406] | 52.7 ± 1.1 nM | –
O=C(NCc1nccs1)C(=O)[C@@H](Cc1ccccc1)NC(=O)[C@H]1COCCN1C(=O)C1CCC(F)(F)CC1 [Compound 407] | 21.4 ± 0.3 nM | –
O=C(NCc1nccs1)C(=O)[C@@H](Cc1ccccc1)NC(=O)[C@H]1COCCN1C(=O)CC1CC(F)(F)C1 [Compound 408] | 14.9 ± 0.5 nM | –
O=C(NCc1nccs1)C(=O)[C@@H](Cc1ccccc1)NC(=O)[C@H]1COCCN1C(=O)C1CCC(F)(F)C1 (stereo partly drawn) [Compound 409] | 36.6 ± 0.4 nM | –
O=C(NCc1nccs1)C(=O)[C@@H](Cc1ccccc1)NC(=O)[C@H]1COCCN1C(=O)C1CCCC(F)(F)C1 (stereo partly drawn) [Compound 410] | 25.3 ± 1.7 nM | –
O=C(NCc1nccs1)C(=O)[C@@H](Cc1ccccc1)NC(=O)[C@H]1COCCN1C(=O)CC1CCC(F)(F)CC1 [Compound 411] | 15.5 ± 0.1 nM | –
O=C(NCc1nccs1)C(=O)[C@@H](Cc1ccccc1)NC(=O)[C@H]1COCCN1C(=O)[C@@H]1C[C@@H]2[C@H](C1)C2(F)F [Compound 412] | 24.8 ± 0.8 nM | –
O=C(NCc1nccs1)C(=O)[C@@H](Cc1ccccc1)NC(=O)[C@H]1COCCN1C(=O)CC1CC1(F)F (stereo partly drawn) [Compound 413] | 29.1 ± 2.5 nM | –
C[C@@H](NC(=O)N1CCC(F)(F)CC1)C(=O)N[C@H](Cc1ccccc1)C(=O)C(=O)NCc1nccs1 [Compound 414] | 95.9 ± 9.7 nM | –
C[C@@H](NC(=O)C1CCCC(F)(F)C1)C(=O)N[C@H](Cc1ccccc1)C(=O)C(=O)NCc1cscn1 (stereo partly drawn) [Compound 416] | 19 ± 0.4 nM | –
C[C@@H](NC(=O)CC1CCC(F)(F)CC1)C(=O)N[C@H](Cc1ccccc1)C(=O)C(=O)NCc1cscn1 [Compound 419] | 9.8 ± 0.1 nM | –
C[C@@H](NC(=O)[C@@H]1C[C@@H]2[C@H](C1)C2(F)F)C(=O)N[C@H](Cc1ccccc1)C(=O)C(=O)NCc1cscn1 [Compound 420] | 10.8 ± 0.7 nM | –
O=C(CNC(=O)C1CCC(F)(F)CC1)N[C@H](Cc1ccccc1)C(=O)C(=O)NCc1cscn1 [Compound 421] | 20.7 ± 0.5 nM | –
O=C(CC1CCC(F)(F)CC1)NCC(=O)N[C@H](Cc1ccccc1)C(=O)C(=O)NCc1cscn1 [Compound 422] | 17.1 ± 0.1 nM | –
O=C(CNC(=O)[C@@H]1C[C@@H]2[C@H](C1)C2(F)F)N[C@H](Cc1ccccc1)C(=O)C(=O)NCc1cscn1 [Compound 424] | 20.7 ± 0.2 nM | –
O=C(CC1CC1(F)F)NCC(=O)N[C@H](Cc1ccccc1)C(=O)C(=O)NCc1cscn1 (stereo partly drawn) [Compound 425] | 36.5 ± 0.3 nM | –
O=C(CNC(=O)C1CCCCCC1)N[C@H](Cc1ccccc1)C(=O)C(=O)NCc1cscn1 [Compound 426] | 9.4 ± 0.1 nM | –
O=C(CNC(=O)C1CC2CCC1C2)N[C@H](Cc1ccccc1)C(=O)C(=O)NCc1cscn1 (stereo partly drawn) [Compound 427] | 20.9 ± 0.4 nM | –
O=C(CNC(=O)C1(F)CCCCC1)N[C@H](Cc1ccccc1)C(=O)C(=O)NCc1cscn1 [Compound 428] | 17.1 ± 0.1 nM | –
O=C(CNC(=O)C1CCC(F)(F)C1)N[C@H](Cc1ccccc1)C(=O)C(=O)NCc1cscn1 (stereo partly drawn) [Compound 429] | 33.8 ± 1 nM | –

SMILES | IC50 (values in nM) | IC50 (values given in μM)
O=C(CNC(=O)C1CCCC(F)(F)C1)N[C@H](Cc1ccccc1)C(=O)C(=O)NCc1cscn1 (stereo partly drawn) [Compound 430] | 20 ± 0.5 nM | –
COC[C@@H](NC(=O)C1CCC(F)(F)CC1)C(=O)N[C@H](Cc1ccccc1)C(=O)C(=O)NCc1cscn1 [Compound 431] | 233.7 ± 1.8 nM | –
COC[C@@H](NC(=O)CC1CCC(F)(F)CC1)C(=O)N[C@H](Cc1ccccc1)C(=O)C(=O)NCc1cscn1 [Compound 432] | 11.5 ± 0.1 nM | –
O=C(NCc1cscn1)C(=O)[C@@H](Cc1ccccc1)NC(=O)[C@H]1CC(F)(F)CN1C(=O)C1CCC(F)(F)CC1 [Compound 433] | 749.6 ± 1.1 nM | –
O=C(NCc1cscn1)C(=O)[C@@H](Cc1ccccc1)NC(=O)[C@H]1CC(F)(F)CN1C(=O)C1CCCC(F)(F)C1 (stereo partly drawn) [Compound 434] | – | 2050 ± 20 nM
O=C(NCc1cscn1)C(=O)[C@@H](Cc1ccccc1)NC(=O)[C@H]1COCCN1C(=O)CC1CC1(F)F (stereo partly drawn) [Compound 435] | 58.2 ± 1.3 nM | –
O=C(NCc1cscn1)C(=O)[C@@H](Cc1ccccc1)NC(=O)[C@H]1COCCN1C(=O)CC1CC(F)(F)C1 [Compound 436] | 171 ± 2.4 nM | –
O=C(NCc1cscn1)C(=O)[C@@H](Cc1ccccc1)NC(=O)[C@H]1COCCN1C(=O)C1CCC(F)(F)C1 (stereo partly drawn) [Compound 437] | 61.1 ± 1.2 nM | –
O=C(NCc1cscn1)C(=O)[C@@H](Cc1ccccc1)NC(=O)[C@H]1COCCN1C(=O)C1CCC(F)(F)CC1 [Compound 438] | 23.4 ± 1.8 nM | –
O=C(CNC(=O)c1ccc(Cl)cc1)N[C@H](Cc1ccccc1)C(=O)C(=O)NCc1ccccn1 [Compound 439] | 46.2 ± 0.3 nM | –
O=C(CNC(=O)c1ccc(Cl)c(Cl)c1)N[C@H](Cc1ccccc1)C(=O)C(=O)NCc1ccccn1 [Compound 440] | 20.4 ± 0.4 nM | –
O=C(CNC(=O)c1ccc(F)c(Cl)c1)N[C@H](Cc1ccccc1)C(=O)C(=O)NCc1ccccn1 [Compound 441] | 18.5 ± 0.3 nM | –
N#Cc1cc(F)cc(C(=O)NCC(=O)N[C@H](Cc2ccccc2)C(=O)C(=O)NCc2ccccn2)c1 [Compound 442] | 20.6 ± 1 nM | –
N#Cc1ccc(C(=O)NCC(=O)N[C@H](Cc2ccccc2)C(=O)C(=O)NCc2ccccn2)cc1F [Compound 443] | 168 ± 1.9 nM | –
O=C(CNC(=O)c1cc2ccccc2o1)N[C@H](Cc1ccccc1)C(=O)C(=O)NCc1ccccn1 [Compound 444] | 214.3 ± 1.2 nM | –
O=C(CNC(=O)C1CCCCC1)N[C@H](Cc1ccccc1)C(=O)C(=O)NCc1ccccn1 [Compound 445] | 21.8 ± 0.3 nM | –
O=C(CNC(=O)C1CCOCC1)N[C@H](Cc1ccccc1)C(=O)C(=O)NCc1ccccn1 [Compound 446] | 414.1 ± 1.8 nM | –
O=C(CNC(=O)C1CCC(F)(F)CC1)N[C@H](Cc1ccc(Cl)cc1)C(=O)C(=O)NCc1ccccn1 [Compound 447] | 187.3 ± 1.1 nM | –
O=C(CNC(=O)C1CCC(F)(F)CC1)N[C@H](Cc1cccc(Cl)c1)C(=O)C(=O)NCc1ccccn1 [Compound 448] | 59.9 ± 0.5 nM | –
O=C(CNC(=O)C1CCC(F)(F)CC1)N[C@H](Cc1ccccc1Cl)C(=O)C(=O)NCc1ccccn1 [Compound 449] | 45.3 ± 1.2 nM | –
O=C(CNC(=O)C1CCC(F)(F)CC1)N[C@H](Cc1ccc(Cl)cc1Cl)C(=O)C(=O)NCc1ccccn1 [Compound 450] | 45.4 ± 0.2 nM | –
O=C(CNC(=O)C1CCC(F)(F)CC1)N[C@H](Cc1ccc(Cl)cc1Cl)C(=O)C(=O)NCc1ccccn1 [Compound 451] | 34.4 ± 1.8 nM | –
